Test system: DNFB-induced ear swelling
Assay: Contact hypersensitivity model in mice (CHS), DNFB-induced ear swelling
Assay type: in vivo
Conditions: 30 mg/kg p.o., 30 minutes before challenge; DNFB-sensitized Balb/C mice; p<0.05 vs sensitized; FIG. 4
Experimental: Balb/C female mice of about 8-12 weeks of age (18-22 g b.w.) were used for the Contact Hypersensitivity model. They were from Charles River Italia (Calco, Italy) and housed under the following constant environmental conditions: temperature 22° C.±2, relative humidity 55%±10, 15-20 air changes per hour (filtered on HEPA 99.99%) and artificial light with a 12-hour circadian cycle (7 a.m.-7 p.m.). All in vivo studies were performed according to the European Council Directive 86/609/EEC and the Italian Ministry guidelines for the care and use of experimental animals (decree #116/92). All the experimental protocols were authorized by the Italian Ministry of Health.
All chemicals were purchased from Sigma-Aldrich (St. Louis, Mo., USA) unless otherwise specified. […]
For the induction of CHS, 8-12 weeks old Balb/C mice, were sensitized by applying once a sensitizing solution of 35 μl of 0.5% DNFB in acetone/olive oil (4:1) on the shaved back. […] Ear thickness was monitored using a caliper at day 0, at day 5 (4 h, 8 h), at day 6 (24 h) and at day 7 (48 h). […] Ear thickness of both ears was measured at three point each, ear swelling was evaluated according to the following formula: […]
All values in the text and figures are presented as mean±SEM of (n) independent experiments. All data were analysed by one-way ANOVA followed by Tukey test. […]

In the case of N#CC(c1ccnc(OCc2ccc(CN3CCOCC3)cc2)n1)c1nc2ccccc2s1 (stereo not shown) [JNK inhibitor, 1,3-benzothiazol-2-yl(2-{[4-(morpholin-4-ylmethyl)benzyl]oxy}pyrimidin-4-yl)acetonitrile], the ear swelling is reported as “significantly reduced ear swelling”.

Reference: patent publication US20090176762A1, “JNK Inhibitors for Treatment of Skin Diseases” (LABORATOIRES SERONO SA, priority 2006, published 2009)
